Results from PubChem BioAssay AID1963980 (Molecular Pharmacology Branch, DTP, NCI, 2024).

System: 475296-252-R-J1-PDC spheroid viability
Experiment: Anticancer human tumor 475296-252-R-J1-PDC patient-derived rectal carcinoma cell line growth inhibition [PI3K]
Details: spheroids with HUVEC and MSC; for IC50: curve of first compound; for viability, T/C: stronger effect = lower value
In short: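 Agents were dosed from a top concentration near clinical Cmax (otherwise 10 microM) in half-log decrements, alone or combined with PI3K inhibitors. The spheroids contain tumor cells plus endothelial (HUVEC) and MSC stroma; viability is measured.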
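Note: spheroids exposed to agents for seven days before readout.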

## CC(=O)c1c(C)c2cnc(Nc3ccc(N4CCNCC4)cn3)nc2n(C2CCCC2)c1=O + Cc1nc(NC(=O)N2CCCC2C(N)=O)sc1-c1ccnc(C(C)(C)C(F)(F)F)c1
Second compound 0.0316 µM
  IC50: > 100 nM
Second compound 0.1 µM
  IC50: > 100 nM
Second compound 0.316 µM
  IC50: > 100 nM
Second compound 1 µM
  IC50: > 100 nM
Second compound 3.16 µM
  IC50: > 100 nM
Second compound 10 µM
  IC50: > 100 nM
Second compound 0.0316 µM, first compound 0.000316 µM
  viability, T/C: 99.6%
Second compound 0.0316 µM, first compound 0.001 µM
  viability, T/C: 96.9%
Second compound 0.0316 µM, first compound 0.00316 µM
  viability, T/C: 101%
Second compound 0.0316 µM, first compound 0.01 µM
  viability, T/C: 97.4%
Second compound 0.0316 µM, first compound 0.0316 µM
  viability, T/C: 117%
Second compound 0.0316 µM, first compound 0.1 µM
  viability, T/C: 118%
Second compound 0.1 µM, first compound 0.000316 µM
  viability, T/C: 106%
Second compound 0.1 µM, first compound 0.001 µM
  viability, T/C: 94.4%
Second compound 0.1 µM, first compound 0.00316 µM
  viability, T/C: 107%
Second compound 0.1 µM, first compound 0.01 µM
  viability, T/C: 91.3%
Second compound 0.1 µM, first compound 0.0316 µM
  viability, T/C: 103%
Second compound 0.1 µM, first compound 0.1 µM
  viability, T/C: 108%
Second compound 0.316 µM, first compound 0.000316 µM
  viability, T/C: 92%
Second compound 0.316 µM, first compound 0.001 µM
  viability, T/C: 114%
Second compound 0.316 µM, first compound 0.00316 µM
  viability, T/C: 94.1%
Second compound 0.316 µM, first compound 0.01 µM
  viability, T/C: 101%
Second compound 0.316 µM, first compound 0.0316 µM
  viability, T/C: 110%
Second compound 0.316 µM, first compound 0.1 µM
  viability, T/C: 101%
Second compound 1 µM, first compound 0.000316 µM
  viability, T/C: 101%
Second compound 1 µM, first compound 0.001 µM
  viability, T/C: 95.5%
Second compound 1 µM, first compound 0.00316 µM
  viability, T/C: 100%
Second compound 1 µM, first compound 0.01 µM
  viability, T/C: 112%
Second compound 1 µM, first compound 0.0316 µM
  viability, T/C: 104%
Second compound 1 µM, first compound 0.1 µM
  viability, T/C: 102%
Second compound 3.16 µM, first compound 0.000316 µM
  viability, T/C: 90.4%
Second compound 3.16 µM, first compound 0.001 µM
  viability, T/C: 102%
Second compound 3.16 µM, first compound 0.00316 µM
  viability, T/C: 96.8%
Second compound 3.16 µM, first compound 0.01 µM
  viability, T/C: 99%
Second compound 3.16 µM, first compound 0.0316 µM
  viability, T/C: 99.8%
Second compound 3.16 µM, first compound 0.1 µM
  viability, T/C: 98.9%
Second compound 10 µM, first compound 0.000316 µM
  viability, T/C: 98%
Second compound 10 µM, first compound 0.001 µM
  viability, T/C: 92.7%
Second compound 10 µM, first compound 0.00316 µM
  viability, T/C: 96.9%
Second compound 10 µM, first compound 0.01 µM
  viability, T/C: 98.9%
Second compound 10 µM, first compound 0.0316 µM
  viability, T/C: 98.8%
Second compound 10 µM, first compound 0.1 µM
  viability, T/C: 90.2%
